One experiment concerns HCV 1b BB7 replicon. As to the kind of experiment: Intracellular antiviral activity in HCV replicon, genotype 1b. It counts as cell-based, HCV genotype 1b. Conditions: for EC50: Hepatitis C virus, 72 h, read-out: HCV RNA EC50. The protocol:
(§1) HCV genotype 1b, BB7 replicon-containing cell line is derived from a human hepatoma cell line (Huh7). A genotype 1a (H77 isolate; GenBank Accession #AF009606) is derived from replicon-containing cell line (Huh7-1a). The cell lines are cultured at 37° C. and 5% CO2 in Dulbecco's Modified Eagle Media (D-MEM; Invitrogen #11965-084) containing 10% fetal bovine serum (FBS; HyClone #SH300070) supplemented with 1% penicillin/streptomycin (Invitrogen #15140-122), 1% non-essential amino acids (Invitrogen #11140-050), 0.66 mM HEPES buffer, pH 7.55 (Invitrogen #15630-080), and 1 mg/mL G418 (Geneticin®, Invitrogen #11811-031 or #10131-027). Genotype 1a and genotype 1b replicon-containing cell lines contain approximately 1000 and 2000 RNA genome equivalents per cell, respectively, when maintained in a subconfluent monolayer in the presence of 1 mg/mL G418. For compound testing, G418 is eliminated and the FBS concentration is reduced to 2%.
At the end of the incubation period, the replicon-containing cells are lysed in 150 μL of lysis buffer provided in the RNeasy 96 Kit (Qiagen #74181). Total cellular RNA is extracted according to the manufacturer's protocol and eluted in 150 μL of nuclease-free water. […] For duplexed RT-PCR quantifying both HCV RNA and 18S rRNA, 0.08 μM rRNA forward primer, 0.1 μM rRNA reverse primer, and 0.2 μM rRNA probe are added (ABI #4308329). […]
The amounts of the HCV and 18S ribosomal RNAs in each sample are estimated by comparing the Ct cycles with those in the corresponding standard curves. […] The total RNA that is used for preparing the standard curve of the rRNA is quantified by O.D.260 measurement. Compound dose response is measured in a 10-point, 3-fold serial dilution series performed in triplicates and subjected to the same corresponding RT-PCR conditions as described above. […] The amounts of HCV are expressed as HCV RNA copies and μg total RNA using rRNA as the surrogate marker for the quantification. […]
A general note: In antiviral work, replicon cells carry a viral genome segment that copies itself.

The next experiment has as its system HCV 1a H77 replicon. As to the kind of experiment: Intracellular antiviral activity in HCV replicon, genotype 1a. It counts as cell-based, HCV genotype 1a. Conditions: Hepatitis C virus, 72 h, read-out: HCV RNA EC50. The protocol: as §1, with “Genotype 1a and genotype 1b replicon-containing cell lines contain approximately 1000 and 2000 RNA genome equivalents per cell, respectively, when maintained in a subconfluent monolayer in the presence of 1 mg/mL G418. For compound testing, G418 is eliminated and the FBS concentration is reduced to 2%.” left out
At the end of the incubation period, the replicon-containing cells are lysed in 150 μL of lysis buffer provided in the RNeasy 96 Kit (Qiagen #74181). […] For duplexed RT-PCR quantifying both HCV RNA and 18S rRNA, 0.08 μM rRNA forward primer, 0.1 μM rRNA reverse primer, and 0.2 μM rRNA probe are added (ABI #4308329). […]
The amounts of the HCV and 18S ribosomal RNAs in each sample are estimated by comparing the Ct cycles with those in the corresponding standard curves. […] The total RNA that is used for preparing the standard curve of the rRNA is quantified by O.D.260 measurement. Compound dose response is measured in a 10-point, 3-fold serial dilution series performed in triplicates and subjected to the same corresponding RT-PCR conditions as described above. […]

The test system of experiment [1] is GAPDH RNA, Huh7 BB7 replicon cells. In words: GAPDH RNA in genotype 1b (BB7) replicon cells. It counts as cell-based. Conditions: Homo sapiens, Huh-7, 72 h, read-out: GAPDH EC50. The method, then:
as §1
(§2) Genotype 1b (BB7) and 1a (H77) cells are seeded in 96-well plates at a sub-confluent density (7000 cells/well) in medium containing 2% FBS without G418. […] The amounts of HCV, rRNA and GAPDH RNAs are quantified using the TaqMan RT-PCR assay.

The test system of experiment [2] is GAPDH RNA, Huh7-1a replicon cells. In words: GAPDH RNA in genotype 1a (H77) replicon cells. It counts as cell-based. Conditions: Homo sapiens, 72 h, read-out: GAPDH EC50. The protocol:
as §1, §2

Each structure is given as a SMILES string.

`CNC(=O)c1c(-c2ccc(F)cc2)oc2cc(N(CCO)S(C)(=O)=O)c(C3CC3)cc12` [HCV-796, 5-cyclopropyl-2-(4-fluoro-phenyl)-6-[(2-hydroxy-ethyl)-methanesulfonyl-amino]-benzofuran-3-carboxylic acid methylamide]: the EC50 was 1.1 ± 0.2 nM with HCV 1b BB7 replicon, 2.5 ± 1.7 nM in the experiment with HCV 1a H77 replicon, over 2430 nM in experiment [1] and over 5600 nM in experiment [2].
Regarding `CC(C)(C)NC(=O)N[C@H](C(=O)N1C[C@H]2[C@@H]([C@H]1C(=O)NC(CC1CCC1)C(=O)C(N)=O)C2(C)C)C(C)(C)C` (stereo partly drawn) [SCH 503034, (1R,5S)—N-[3-amino-1-(cyclobutylmethyl)-2,3-dioxopropyl]-3-[2(S)-[[[(1,1-dimethylethyl)amino]carbonyl]amino]-3,3-dimethyl-1-oxobutyl]-6,6-dimethyl-3-azabicyclo[3.1.0]hexan-2(S)-carboxamide], the EC50 in the experiment on HCV 1b BB7 replicon was 268 ± 29 nM; with HCV 1a H77 replicon, 188 ± 18 nM; in experiment [1], over 3200 nM; in experiment [2], over 3200 nM. The “Difference in EC50, changing media daily vs. single dose in 3 days” value with HCV 1b BB7 replicon (replicon, 3 days) was “No difference in EC50”.

What is called EC50 is the midpoint of the concentration-response curve.

For the origin of these results see patent publication US20070224167A1, “Novel HCV inhibitor combinations and methods” (priority 2006, published 2007).
